Molecules are shown by their SMILES. Counter-ions that a name gives are not always drawn.

This is an account of results in patent publication US20100004240A1, “Indole Compounds” (Glaxo Group Limited, priority 2006, published 2010).

One test deals with T1, human EP1 receptor (Homo sapiens, UniProt P34995).
T1 construct: expressed in transfected cells; host or cells: CHO-K1 cells
T1 sequence (P34995 1-402): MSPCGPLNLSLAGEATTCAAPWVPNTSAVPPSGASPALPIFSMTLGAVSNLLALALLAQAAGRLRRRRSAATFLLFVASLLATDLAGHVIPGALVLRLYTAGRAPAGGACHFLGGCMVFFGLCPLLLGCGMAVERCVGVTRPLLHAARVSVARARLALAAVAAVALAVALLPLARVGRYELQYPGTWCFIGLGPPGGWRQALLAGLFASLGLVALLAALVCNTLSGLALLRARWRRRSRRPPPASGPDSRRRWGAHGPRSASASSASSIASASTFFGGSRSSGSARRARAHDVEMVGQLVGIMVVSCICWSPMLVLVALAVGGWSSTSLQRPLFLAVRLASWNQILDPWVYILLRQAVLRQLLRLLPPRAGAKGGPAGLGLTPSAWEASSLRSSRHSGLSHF
As to the kind of experiment: human EP1 calcium mobilisation assay. Format: cell-based. The note with it: for Ki: antagonism of PGE2-induced calcium mobilisation, CHO-K1 cells expressing human EP1, averages of a number of experiments, read-out: functional pKi value (converted). As to the method: Briefly, the antagonist properties of compounds are assessed by their ability to inhibit the mobilisation of intracellular calcium ([Ca^2+]i) in response to activation of EP1 or EP3 receptors by the natural agonist hormone prostaglandin E2 (PGE2). Increasing concentrations of antagonist reduce the amount of calcium that a given concentration of PGE2 can mobilise. The net effect is to displace the PGE2 concentration-effect curve to higher concentrations of PGE2. The amount of calcium produced is assessed using a calcium-sensitive fluorescent dye such as Fluo-4, AM and a suitable instrument such as a Fluorimetric Imaging Plate Reader (FLIPR). Increasing amounts of [Ca^2+]i produced by receptor activation increase the amount of fluorescence produced by the dye and give rise to an increasing signal. The signal may be detected using the FLIPR instrument and the data generated may be analysed with suitable curve-fitting software.
The human EP1 or EP3 calcium mobilisation assay (hereafter referred to as ‘the calcium assay’) utilises Chinese hamster ovary-K1 (CHO-K1) cells into which a stable (pClN; BioTechniques 20 (1996): 102-110) vector containing either EP1 or EP3 cDNA has previously been transfected. Cells are cultured in suitable flasks containing culture medium such as DMEM:F-12 supplemented with 10% v/v foetal calf serum, 2 mM L-glutamine, 0.25 mg/ml geneticin, 100 μM flurbiprofen and 10 μg/ml puromycin.
For assay, cells are harvested using a proprietary reagent that dislodges cells such as Versene. Cells are re-suspended in a suitable quantity of fresh culture media for introduction into a 384-well plate. Following incubation for 24 hours at 37° C. the culture media is replaced with a medium containing Fluo-4 and the detergent pluronic acid, and a further incubation takes place. Concentrations of compounds are then added to the plate in order to construct concentration-effect curves. This may be performed on the FLIPR in order to assess the agonist properties of the compounds. Concentrations of PGE2 are then added to the plate in order to assess the antagonist properties of the compounds.
The data so generated may be analysed by means of a computerised curve-fitting routine. The concentration of compound that elicits a half-maximal inhibition of the calcium mobilisation induced by PGE2 (pIC50) may then be estimated.
(In general: Calcium flux is commonly read through the fluorescence of an indicator in the cells.)

Test [1] concerns the target T2, human prostanoid EP1 receptor (Homo sapiens, UniProt P34995).
T2 construct: expressed in transfected cells; host or cells: CHO-K1 cells, membrane fraction
T2 sequence (P34995 1-402): T1 sequence (P34995 1-402)
The experiment in a line: binding assay for the human prostanoid EP1 receptor (competition with [3H]-PGE2). The conditions noted are these: [3H]-PGE2 competition, CHO-K1 cell membranes expressing human EP1; averages of a number of experiments; read-out: pIC50 value (converted). As to the method:
Competition assay using [^3H]-PGE2.
Compound potencies are determined using a radioligand binding assay. In this assay compound potencies are determined from their ability to compete with tritiated prostaglandin E2 ([^3H]-PGE2) for binding to the human EP1 receptor.
This assay utilises Chinese hamster ovary-K1 (CHO-K1) cells into which a stable vector containing the EP1 cDNA has previously been transfected. Cells are cultured in suitable flasks containing culture medium such as DMEM:F-12 supplemented with 10% v/v foetal calf serum, 2 mM L-glutamine, 0.25 mg/ml geneticin, 10 μg/ml puromycin and 10 μM indomethacin.
Cells are detached from the culture flasks by incubation in calcium and magnesium free phosphate buffered saline containing 1 mM disodium ethylenediaminetetraacetic acid (Na2EDTA) and 10 μM indomethacin for 5 min. The cells are isolated by centrifugation at 250×g for 5 mins and suspended in an ice cold buffer such as 50 mM Tris, 1 mM Na2EDTA, 140 mM NaCl, 10 μM indomethacin (pH 7.4). The cells are homogenised using a Polytron tissue disrupter (2×10s burst at full setting), centrifuged at 48,000×g for 20 mins and the pellet containing the membrane fraction is washed (optional) three times by suspension and centrifugation at 48,000×g for 20 mins. The final membrane pellet is suspended in an assay buffer such as 10 mM 2-[N-morpholino]ethanesulphonic acid, 1 mM Na2EDTA, 10 mM MgCl2 (pH 6). Aliquots are frozen at −80° C. until required.
For the binding assay the cell membranes, competing compounds and [^3H]-PGE2 (3 nM final assay concentration) are incubated in a final volume of 100 μl for 30 min at 30^O C. All reagents are prepared in assay buffer. Reactions are terminated by rapid vacuum filtration over GF/B filters using a Brandell cell harvester. The filters are washed with ice cold assay buffer, dried and the radioactivity retained on the filters is measured by liquid scintillation counting in Packard TopCount scintillation counter.
The data are analysed using non linear curve fitting techniques to determine the concentration of compound producing 50% inhibition of specific binding (IC50).

On to `O=C(NC1CCOCC1)c1coc(-c2cn(CC3CC3)c3ccc(Cl)cc23)n1` [Example 1, 2-[5-Chloro-1-(cyclopropylmethyl)-1H-indol-3-yl]-N-(tetrahydro-2H-pyran-4-yl)-1,3-oxazole-4-carboxamide], for which, at human EP1 receptor (human EP1, CHO-K1 cells), the “activity in the calcium mobilisation assay” value is “inactive”. Moreover, in test [1], the IC50 is no more than 1000 nM.
As to `O=C(NN1CCOCC1)c1coc(-c2cn(CC3CC3)c3ccc(Cl)cc23)n1` [Example 2, 2-[5-Chloro-1-(cyclopropylmethyl)-1H-indol-3-yl]-N-4-morpholinyl-1,3-oxazole-4-carboxamide], at human EP1 receptor, the Ki was no more than 1000 nM. In addition, in test [1], the IC50 was no more than 316 nM.
The corresponding values for `O=C(NN1CCOCC1)c1coc(-c2cn(C3CCCC3)c3ccc(Cl)cc23)n1` [Example 3, 2-(5-Chloro-1-cyclopentyl-1H-indol-3-yl)-N-4-morpholinyl-1,3-oxazole-4-carboxamide] are no more than 316 nM and no more than 316 nM.
In the case of `O=C(c1coc(-c2cn(C3CCCC3)c3ccc(Cl)cc23)n1)N1CCOCC1` [Example 4, 5-Chloro-1-cyclopentyl-3-[4-(4-morpholinylcarbonyl)-1,3-oxazol-2-yl]-1H-indole], at human EP1 receptor, the Ki was no more than 1000 nM. In addition, the IC50 in test [1] was no more than 1000 nM.
In the case of `CC(C)Cn1cc(-c2nc(C(=O)Nc3cccnc3)co2)c2cc(Cl)ccc21` [Example 5, 2-[5-Chloro-1-(2-methylpropyl)-1H-indol-3-yl]-N-3-pyridinyl-1,3-oxazole-4-carboxamide], the Ki at human EP1 receptor was no more than 316 nM. For the same compound, the IC50 in test [1] was no more than 316 nM.
Take `CC(C)Cn1cc(-c2nc(C(=O)Nc3ccccn3)co2)c2cc(Cl)ccc21` [Example 6, 2-[5-Chloro-1-(2-methylpropyl)-1H-indol-3-yl]-N-2-pyridinyl-1,3-oxazole-4-carboxamide]: the Ki at human EP1 receptor was no more than 316 nM.
Turning to `CC(C)Cn1cc(-c2nc(C(=O)NCC3CCOCC3)co2)c2cc(Cl)ccc21` [Example 7, 2-[5-Chloro-1-(2-methylpropyl)-1H-indol-3-yl]-N-(tetrahydro-2H-pyran-4-ylmethyl)-1,3-oxazole-4-carboxamide], the Ki at human EP1 receptor is no more than 316 nM. In addition, the IC50 in test [1] was no more than 316 nM.
Turning to `CC(C)Cn1cc(-c2nc(C(N)=O)co2)c2cc(Cl)ccc21` [Example 8, 2-[5-Chloro-1-(2-methylpropyl)-1H-indol-3-yl]-1,3-oxazole-4-carboxamide], the Ki at human EP1 receptor is no more than 316 nM. Also, in test [1], the IC50 is no more than 316 nM.
With `CC(C)Cn1cc(-c2nc(-c3nc4ccccc4[nH]3)co2)c2cc(Cl)ccc21` [Example 9, 2-{2-[5-Chloro-1-(2-methylpropyl)-1H-indol-3-yl]-1,3-oxazol-4-yl}-1H-benzimidazole hydrochloride], the Ki on human EP1 receptor was no more than 316 nM. In addition, the IC50 in test [1] was no more than 316 nM.
Regarding `CC(C)Cn1cc(-c2nc(-c3nc4ncccc4[nH]3)co2)c2cc(Cl)ccc21` [Example 10, 2-{2-[5-Chloro-1-(2-methylpropyl)-1H-indol-3-yl]-1,3-oxazol-4-yl}-1H-imidazo[4,5-b]pyridine], the Ki at human EP1 receptor was no more than 1000 nM. In test [1], the IC50 was no more than 316 nM.
As to `CC(C)Cn1cc(-c2nc(-c3nc4cc(CO)ccc4[nH]3)co2)c2cc(Cl)ccc21` [Example 11, (2-{2-[5-Chloro-1-(2-methylpropyl)-1H-indol-3-yl]-1,3-oxazol-4-yl}-1H-benzimidazol-5-yl)methanol], the Ki on human EP1 receptor was no more than 316 nM. The IC50 in test [1] is no more than 316 nM.
In the case of `CC(C)Cn1cc(-c2nc(-c3nc4ccc(CN5CCCCC5)cc4[nH]3)co2)c2cc(Cl)ccc21` [Example 12, 2-{2-[5-Chloro-1-(2-methylpropyl)-1H-indol-3-yl]-1,3-oxazol-4-yl}-5-(1-piperidinylmethyl)-1H-benzimidazole dihydrochloride], the IC50 in test [1] is no more than 316 nM.
On the same count and under the same terms, as for `CC(C)Cn1cc(-c2nc(-c3nc4ccc(CN5CCCC5)cc4[nH]3)co2)c2cc(Cl)ccc21` [Example 13, 2-{2-[5-Chloro-1-(2-methylpropyl)-1H-indol-3-yl]-1,3-oxazol-4-yl}-5-(1-pyrrolidinylmethyl)-1H-benzimidazole dihydrochloride], the figure is no more than 316 nM; as for `CCNCc1ccc2nc(-c3coc(-c4cn(CC(C)C)c5ccc(Cl)cc45)n3)[nH]c2c1` [Example 14, [(2-{2-[5-Chloro-1-(2-methylpropyl)-1H-indol-3-yl]-1,3-oxazol-4-yl}-1H-benzimidazol-5-yl)methyl]ethylamine dihydrochloride], no more than 1000 nM.
